Experimental data from the Kinase Knowledgebase extract (Sharma et al. 2016).

target: EGFR (UniProt P00533)
Sequence (P00533 whole entry, looked up): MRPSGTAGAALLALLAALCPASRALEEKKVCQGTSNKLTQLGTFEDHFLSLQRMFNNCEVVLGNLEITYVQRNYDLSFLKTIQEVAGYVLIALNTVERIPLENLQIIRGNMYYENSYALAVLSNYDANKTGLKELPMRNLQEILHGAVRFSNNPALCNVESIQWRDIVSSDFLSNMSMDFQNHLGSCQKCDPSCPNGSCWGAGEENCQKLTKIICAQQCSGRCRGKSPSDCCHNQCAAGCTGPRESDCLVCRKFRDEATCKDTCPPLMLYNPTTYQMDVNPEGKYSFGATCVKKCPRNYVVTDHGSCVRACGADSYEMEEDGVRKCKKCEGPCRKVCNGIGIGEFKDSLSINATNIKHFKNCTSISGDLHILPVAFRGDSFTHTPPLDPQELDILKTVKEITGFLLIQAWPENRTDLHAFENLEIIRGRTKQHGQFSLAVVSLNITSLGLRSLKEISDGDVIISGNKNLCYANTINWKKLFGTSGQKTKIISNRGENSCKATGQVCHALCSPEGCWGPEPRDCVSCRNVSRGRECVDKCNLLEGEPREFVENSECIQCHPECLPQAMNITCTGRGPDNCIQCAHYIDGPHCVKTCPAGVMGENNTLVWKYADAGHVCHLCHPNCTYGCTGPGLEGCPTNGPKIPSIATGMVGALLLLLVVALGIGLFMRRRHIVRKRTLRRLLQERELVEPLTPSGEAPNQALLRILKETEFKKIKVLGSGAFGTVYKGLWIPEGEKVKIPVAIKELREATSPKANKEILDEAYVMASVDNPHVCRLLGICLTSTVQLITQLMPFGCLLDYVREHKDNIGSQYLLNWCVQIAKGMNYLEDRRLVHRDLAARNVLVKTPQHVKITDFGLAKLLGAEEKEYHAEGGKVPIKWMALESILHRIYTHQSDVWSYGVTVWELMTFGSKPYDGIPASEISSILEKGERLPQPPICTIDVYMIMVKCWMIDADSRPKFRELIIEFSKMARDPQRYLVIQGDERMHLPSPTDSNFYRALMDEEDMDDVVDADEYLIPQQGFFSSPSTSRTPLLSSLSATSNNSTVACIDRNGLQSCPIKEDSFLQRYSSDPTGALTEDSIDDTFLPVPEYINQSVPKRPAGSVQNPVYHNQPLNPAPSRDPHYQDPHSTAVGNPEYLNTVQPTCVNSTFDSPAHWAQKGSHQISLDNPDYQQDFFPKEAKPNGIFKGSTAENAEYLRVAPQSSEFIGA

Which inhibition does the source give for N[C@@H](CCC(=O)N[C@@H](CSc1cc(C[C@H](N)C(=O)O)cc(O)c1O)C(=O)NCC(=O)O)C(=O)O here?
The inhibition was 4.4.

How did the inhibition turn out when NCCC(=O)N[C@H](Cc1cc(O)c(O)c(SC[C@H](NC(=O)CC[C@H](N)C(=O)O)C(=O)NCC(=O)O)c1)C(=O)O was run?
The inhibition was 8.2.

With NCCc1cc(O)c(O)c(SC[C@H](NC(=O)CC[C@H](N)C(=O)O)C(=O)NCC(=O)O)c1 as the compound, how does the inhibition read?
Its inhibition is 1.

For NCCc1cc(SC[C@H](NC(=O)CC[C@H](N)C(=O)O)C(=O)NCC(=O)O)c(O)c(O)c1SC[C@@H](NC(=O)CC[C@@H](N)C(=O)O)C(=O)NCC(=O)O, which inhibition is on record?
The inhibition was 7.6.

How did the inhibition turn out when N[C@H](Cc1cc(O)c(O)c(SC[C@H](N)C(=O)O)c1)C(=O)O was run?
Its inhibition is 0.

For N[C@H](Cc1cc(O)c(O)c(SC[C@H](NC(=O)CC[C@H](N)C(=O)O)C(=O)NCC(=O)O)c1)C(=O)O, which inhibition is on record?
Its inhibition is 0.

C[C@@](Cc1cc(O)c(O)c(SC[C@H](NC(=O)CC[C@H](N)C(=O)O)C(=O)NCC(=O)O)c1)(NC(=O)CCN)C(=O)O was tested. Which inhibition did it give?
Its inhibition is 5.2.

With NCCC(=O)N[C@@H](Cc1cc(O)c(O)c(SC[C@H](NC(=O)CC[C@H](N)C(=O)O)C(=O)NCC(=O)O)c1)C(=O)O as the compound, how does the inhibition read?
Its inhibition is 2.2.

For N[C@@H](CSc1cc(C[C@H](N)C(=O)O)cc(O)c1O)C(=O)O, which inhibition is on record?
Its inhibition is 2.9.

NCCC(=O)NCCc1cc(O)c(O)c(SC[C@H](NC(=O)CC[C@H](N)C(=O)O)C(=O)NCC(=O)O)c1 was tested. Which inhibition did it give?
The inhibition was 4.9.
